These are literature values, as cited in patent publication US20070196465A1, “Treatment with dihydropyridine calcium channel blockers and omega-3 fatty acids and a combination product thereof” (priority 2005, published 2007).

Structures are written as SMILES.

One data set relates to heart. The note with it: Finkel et al. 1992.
Another data set relates to cells. The note with it: dihydropyridine alone.
The test system of a further data set is L-type Ca^2+ channel. The conditions noted are these: dihydropyridine alone.

Regarding `COC(=O)C1=C(C)NC(C)=C([N+](=O)[O-])C1c1ccccc1C(F)(F)F` (stereo not shown) [Bay K 8644], the inotropic effect result in the data set with heart is on record as “concentration-dependent positive inotrope”. Also, in the data set with cells, the “effect on calcium influx / cytosolic free calcium and cell contraction” value is “increases in calcium influx and the contracture of cells”. The “effect on peak L-type Ca2+ channel current, cytosolic Ca2+ and cell contraction” value in the data set on L-type Ca^2+ channel was “significantly increases peak L-type Ca^2+ channel current, cytosolic Ca^2+, and cell contraction”.
`CCCCC/C=C\C/C=C\C/C=C\C/C=C\CCCC(=O)O` [arachidonic acid]: in the data set on heart, the inotropic effect result is “concentration-dependent negative inotropes”.
